In patent US20090143279A1 (priority 2007, published 2009):
Like-named read-outs stand apart in the source and are kept apart here.

Experiments:
C2C12 myotubes = settings: for Viability (composite Z-score): normalized score vs mock-treated (DMSO) wells
OXPHOS gene expression = type: cell-based, mouse; settings: for GE-HTS (composite Z-score): normalized score vs mock-treated (DMSO) wells
[1] = tested on: mitochondrial membrane potential; type: cell-based, mouse; settings: for ΔΨm (composite Z-score): normalized score vs mock-treated (DMSO) wells
[2] = tested on: cellular dehydrogenase activity; settings: for MTT (composite Z-score): normalized score vs mock-treated (DMSO) wells
cytochrome c = type: cell-based, mouse; settings: for cyt c (composite Z-score): normalized score vs mock-treated (DMSO) wells
mtOXPHOS transcripts = type: cell-based, mouse; settings: for mitoOX (composite Z-score): normalized score vs mock-treated (DMSO) wells
nuOXPHOS transcripts = type: cell-based, mouse; settings: for nucOX (composite Z-score): normalized score vs mock-treated (DMSO) wells
reactive oxygen species = type: cell-based, mouse; settings: for ROS (composite Z-score): normalized score vs mock-treated (DMSO) wells
[3] = composite Z-score vs DMSO, Conc 20 μM
[4] = normalized composite Z-score vs mock-treated (DMSO) wells, Conc 20 μM
[5] = 20 μM, composite Z-score vs DMSO
[6] = composite Z-score vs DMSO, Conc 8.94 μM
[7] = composite Z-score vs mock-treated (DMSO) wells, Conc 20 μM
[8] = composite Z-score vs DMSO wells, Conc 20 μM

## C[C@@H]1O[C@@H](O[C@H]2[C@H](O[C@H]3CC[C@@]4(C)[C@@H](CC[C@]5(C)[C@@H]4CC=C4[C@@H]6CC(C)(C)CC[C@]6(C(=O)O)CC[C@]45C)[C@]3(C)CO)OC[C@H](O)[C@@H]2O)[C@H](O)[C@H](O)[C@H]1O [sapindoside A]
C2C12 myotubes; [3]
  Viability: −3.886
OXPHOS gene expression; [3]
  GE-HTS: −1.176
[1]; [3]
  ΔΨm: −3.760
[2]; [3]
  MTT: −4.558
Cytochrome c; [3]
  cyt c: −4.058
mtOXPHOS transcripts; [3]
  mitoOX: 0.322
nuOXPHOS transcripts; [3]
  nucOX: −1.786
Reactive oxygen species; [3]
  ROS: −2.825

## COc1ccc2c(c1)OC/C(=C\c1ccc(OC)c(O)c1)C2=O [sappanone A dimethyl ether]
C2C12 myotubes; Conc 20 μM
  Viability (composite Z-score): −1.045
OXPHOS gene expression; Conc 20 μM
  GE-HTS (composite Z-score): 0.450
[1]; Conc 20 μM
  ΔΨm (composite Z-score): 0.017
[2]; Conc 20 μM
  MTT (composite Z-score): −1.865
Cytochrome c; Conc 20 μM
  cyt c (composite Z-score): −0.664
mtOXPHOS transcripts; Conc 20 μM
  mitoOX (composite Z-score): 0.248
nuOXPHOS transcripts; Conc 20 μM
  nucOX (composite Z-score): 0.495
Reactive oxygen species; Conc 20 μM
  ROS (composite Z-score): −2.429

## COc1ccc2c(c1)OC/C(=C/c1ccc(OC)c(OC)c1)C2=O [sappanone A trimethyl ether]
C2C12 myotubes; Conc 20 μM
  Viability (composite Z-score): −0.259
OXPHOS gene expression; Conc 20 μM
  GE-HTS (composite Z-score): 1.090
[1]; Conc 20 μM
  ΔΨm (composite Z-score): −0.290
[2]; Conc 20 μM
  MTT (composite Z-score): −0.980
Cytochrome c; Conc 20 μM
  cyt c (composite Z-score): −0.471
mtOXPHOS transcripts; Conc 20 μM
  mitoOX (composite Z-score): 0.094
nuOXPHOS transcripts; Conc 20 μM
  nucOX (composite Z-score): 1.458
Reactive oxygen species; Conc 20 μM
  ROS (composite Z-score): 0.120

## C[C@]12CC[C@H](O)C[C@H]1CC[C@@H]1[C@@H]2[C@H](O)C[C@]2(C)[C@@H](C3=CC(=O)OC3)CC[C@]12O [sarmentogenin]
C2C12 myotubes; [4]
  Viability: 0.694
OXPHOS gene expression; [4]
  GE-HTS: 0.508
[1]; [4]
  ΔΨm: −0.354
[2]; [4]
  MTT: −0.191
Cytochrome c; [4]
  cyt c: 0.614
mtOXPHOS transcripts; [4]
  mitoOX: 0.077
nuOXPHOS transcripts; [4]
  nucOX: 0.691
Reactive oxygen species; [4]
  ROS: −0.151

## COc1cc2ccc(=O)oc2cc1O [scopoletin]
C2C12 myotubes
  Viability: 0.413
C2C12 myotubes; [5]
  Viability: 0.675
OXPHOS gene expression
  GE-HTS: −0.462
OXPHOS gene expression; [5]
  GE-HTS: 0.543
[1]
  ΔΨm: 0.146
[1]; [5]
  ΔΨm: −0.056
[2]
  MTT: 0.261
[2]; [5]
  MTT: −0.957
Cytochrome c
  cyt c: 0.501
Cytochrome c; [5]
  cyt c: 0.928
mtOXPHOS transcripts
  mitoOX: −0.291
mtOXPHOS transcripts; [5]
  mitoOX: 0.101
nuOXPHOS transcripts
  nucOX: −0.513
nuOXPHOS transcripts; [5]
  nucOX: 0.746
Reactive oxygen species
  ROS: −0.017
Reactive oxygen species; [5]
  ROS: 0.727

## C/C=C(/C)C(=O)O[C@H]1Cc2c(ccc3ccc(=O)oc23)OC1(C)C [selinidin]
C2C12 myotubes; Conc 20 μM
  Viability (composite Z-score): 0.773
OXPHOS gene expression; Conc 20 μM
  GE-HTS (composite Z-score): −0.347
[1]; Conc 20 μM
  ΔΨm (composite Z-score): 0.013
[2]; Conc 20 μM
  MTT (composite Z-score): −0.359
Cytochrome c; Conc 20 μM
  cyt c (composite Z-score): −0.478
mtOXPHOS transcripts; Conc 20 μM
  mitoOX (composite Z-score): −0.285
nuOXPHOS transcripts; Conc 20 μM
  nucOX (composite Z-score): −0.328
Reactive oxygen species; Conc 20 μM
  ROS (composite Z-score): 0.838

## O=C(O)c1cc(O)c2c(c1)[C@H]([C@H]1c3cc(C(=O)O)cc(O)c3C(=O)c3c(O[C@@H]4O[C@H](CO)[C@@H](O)[C@H](O)[C@H]4O)cccc31)c1cccc(O[C@@H]3O[C@H](CO)[C@@H](O)[C@H](O)[C@H]3O)c1C2=O [sennoside A]
C2C12 myotubes; [3]
  Viability: 0.602
OXPHOS gene expression; [3]
  GE-HTS: −1.374
[1]; [3]
  ΔΨm: −0.640
[2]; [3]
  MTT: −0.769
Cytochrome c; [3]
  cyt c: 0.362
mtOXPHOS transcripts; [3]
  mitoOX: −1.628
nuOXPHOS transcripts; [3]
  nucOX: −1.093
Reactive oxygen species; [3]
  ROS: 0.137

## CC(C)=CCc1c2c(c(O)c3c(=O)c(O)c(-c4ccccc4)oc13)C=CC(C)(C)O2 [sericetin]
C2C12 myotubes; [4]
  Viability: −0.783
OXPHOS gene expression; [4]
  GE-HTS: −0.890
[1]; [4]
  ΔΨm: 6.788
[2]; [4]
  MTT: −1.507
Cytochrome c; [4]
  cyt c: −0.335
mtOXPHOS transcripts; [4]
  mitoOX: −1.132
nuOXPHOS transcripts; [4]
  nucOX: −0.670
Reactive oxygen species; [4]
  ROS: 0.124

## CN[C@H]1CC[C@@H](c2ccc(Cl)c(Cl)c2)c2ccccc21 [sertraline]
C2C12 myotubes
  Viability: 0.279
OXPHOS gene expression
  GE-HTS: −1.068
[1]
  ΔΨm: 0.420
[2]
  MTT: −1.905
Cytochrome c
  cyt c: −1.121
mtOXPHOS transcripts
  mitoOX: 0.020
nuOXPHOS transcripts
  nucOX: −1.476
Reactive oxygen species
  ROS: 0.090

## COc1cc(/C=C/C(=O)O)cc(OC)c1OC [sinapic acid methyl ether]
C2C12 myotubes
  Viability: −0.934
OXPHOS gene expression
  GE-HTS: −1.103
[1]
  ΔΨm: −0.716
[2]
  MTT: −0.736
Cytochrome c
  cyt c: 0.207
mtOXPHOS transcripts
  mitoOX: −1.015
nuOXPHOS transcripts
  nucOX: −1.058
Reactive oxygen species
  ROS: 0.722

## COC1=C[C@@H]2[C@@H]3Cc4ccc(OC)c(O)c4[C@]2(CCN3C)CC1=O [sinomenine]
C2C12 myotubes; [3]
  Viability: −0.937
OXPHOS gene expression; [3]
  GE-HTS: −0.875
[1]; [3]
  ΔΨm: −0.657
[2]; [3]
  MTT: −1.489
Cytochrome c; [3]
  cyt c: −0.117
mtOXPHOS transcripts; [3]
  mitoOX: −1.253
nuOXPHOS transcripts; [3]
  nucOX: −0.565
Reactive oxygen species; [3]
  ROS: 0.777

## CN[C@@H]1[C@@H](O)[C@@H](O[C@@H]2[C@@H](O)[C@H](O[C@H]3OC(CN)=CC[C@H]3N)[C@@H](N)C[C@H]2N)OC[C@]1(C)O [sisomicin]
C2C12 myotubes; [6]
  Viability: −0.274
OXPHOS gene expression; [6]
  GE-HTS: −0.448
[1]; [6]
  ΔΨm: −0.962
[2]; [6]
  MTT: −1.515
Cytochrome c; [6]
  cyt c: 0.746
mtOXPHOS transcripts; [6]
  mitoOX: −0.588
nuOXPHOS transcripts; [6]
  nucOX: −0.337
Reactive oxygen species; [6]
  ROS: 1.889

## CC[C@H](CC[C@@H](C)[C@H]1CC[C@H]2[C@@H]3CC=C4C[C@@H](OC(C)=O)CC[C@]4(C)[C@H]3CC[C@]12C)C(C)C [sitosteryl acetate]
C2C12 myotubes; [4]
  Viability: −0.827
OXPHOS gene expression; [4]
  GE-HTS: −0.233
[1]; [4]
  ΔΨm: −0.192
[2]; [4]
  MTT: −0.775
Cytochrome c; [4]
  cyt c: −0.443
mtOXPHOS transcripts; [4]
  mitoOX: 0.180
nuOXPHOS transcripts; [4]
  nucOX: −0.389
Reactive oxygen species; [4]
  ROS: 0.930

## O=C(O)CF [sodium fluoroacetate]
C2C12 myotubes; [3]
  Viability: −0.906
OXPHOS gene expression; [3]
  GE-HTS: −0.009
[1]; [3]
  ΔΨm: −0.784
[2]; [3]
  MTT: −1.379
Cytochrome c; [3]
  cyt c: 0.653
mtOXPHOS transcripts; [3]
  mitoOX: −0.459
nuOXPHOS transcripts; [3]
  nucOX: 0.206
Reactive oxygen species; [3]
  ROS: 0.613

## CC1=CC(=O)[C@H]2C(C)(C)CCC[C@]2(C)[C@@]1(O)CCc1ccoc1 [solidagenone]
C2C12 myotubes; [7]
  Viability: −0.409
OXPHOS gene expression; [7]
  GE-HTS: 0.127
[1]; [7]
  ΔΨm: −0.242
[2]; [7]
  MTT: 0.084
Cytochrome c; [7]
  cyt c: −0.061
mtOXPHOS transcripts; [7]
  mitoOX: 0.441
nuOXPHOS transcripts; [7]
  nucOX: −0.023
Reactive oxygen species; [7]
  ROS: 1.734

## CC(=O)N[C@@H](CC(=O)N[C@@H](CCC(=O)O)C(=O)O)C(=O)O [spaglumic acid]
C2C12 myotubes; [8]
  Viability: −0.009
OXPHOS gene expression; [8]
  GE-HTS: 0.120
[1]; [8]
  ΔΨm: −0.685
[2]; [8]
  MTT: −0.779
Cytochrome c
  cyt c: 0.600
Cytochrome c; [8]
  cyt c: 0.191
mtOXPHOS transcripts; [8]
  mitoOX: −0.284
nuOXPHOS transcripts; [8]
  nucOX: 0.307
Reactive oxygen species; [8]
  ROS: 0.615

## COc1cc2ccc(=O)oc2c2ccoc12 [sphondin]
C2C12 myotubes; [7]
  Viability: −0.790
OXPHOS gene expression; [7]
  GE-HTS: −0.684
[1]; [7]
  ΔΨm: 0.136
[2]; [7]
  MTT: −0.661
Cytochrome c; [7]
  cyt c: 0.091
mtOXPHOS transcripts; [7]
  mitoOX: −0.666
nuOXPHOS transcripts; [7]
  nucOX: −0.605
Reactive oxygen species; [7]
  ROS: 1.692

## CC[C@H](C=C[C@@H](C)[C@H]1CC[C@H]2[C@@H]3CCC4=CC(=O)CC[C@]4(C)[C@H]3CC[C@]12C)C(C)C [stigmasta-4,22-dien-3-one]
C2C12 myotubes
  Viability: 0.023
OXPHOS gene expression
  GE-HTS: −0.138
[1]
  ΔΨm: −0.299
[2]
  MTT: −1.294
Cytochrome c
  cyt c: 0.434
mtOXPHOS transcripts
  mitoOX: −0.118
nuOXPHOS transcripts
  nucOX: −0.094
Reactive oxygen species
  ROS: 0.550
